Laboratory results: publication PMC8799717, “Pharmacological targeting PIKfyve and tubulin as an effective treatment strategy for double-hit lymphoma” (Cell Death Discovery, 2022)

Key:
Test in all cases: biochemical
Design in all cases: KINOMEscan active-site-directed competition binding panel, 468 kinases, percent of DMSO control at 1 uM
Conditions in all cases: KINOMEscan binding, percent of DMSO control; read-out: Ctrl%
BRSK1 = BRSK1 (Homo sapiens, UniProt Q8TDC3)
CDK2 = CDK2 (Homo sapiens, UniProt P24941)
CDK8 = CDK8 (Homo sapiens, UniProt P49336)
CDK9 = CDK9 (Homo sapiens, UniProt P50750)
CDK9, sequence (P50750 whole entry): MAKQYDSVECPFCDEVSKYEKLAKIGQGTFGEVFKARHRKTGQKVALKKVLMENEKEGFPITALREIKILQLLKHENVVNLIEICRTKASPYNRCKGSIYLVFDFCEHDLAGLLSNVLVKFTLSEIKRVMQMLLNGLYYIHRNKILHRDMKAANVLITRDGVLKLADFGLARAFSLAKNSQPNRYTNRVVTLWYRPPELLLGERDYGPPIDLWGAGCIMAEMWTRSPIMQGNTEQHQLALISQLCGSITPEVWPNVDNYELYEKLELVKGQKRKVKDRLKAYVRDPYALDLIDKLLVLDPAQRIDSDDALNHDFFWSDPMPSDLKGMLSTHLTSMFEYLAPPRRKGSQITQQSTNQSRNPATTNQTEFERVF

CDKL5 = CDKL5 (Homo sapiens, UniProt O76039)
CSK = CSK (Homo sapiens, UniProt P41240)
FLT3(ITD,F691L) = FLT3(ITD,F691L) (Homo sapiens, UniProt P36888, F691L/ITD)
FLT3(R834Q) = FLT3(R834Q) (Homo sapiens, UniProt P36888, R834Q)
GSK3B = GSK3B (Homo sapiens, UniProt P49841)
GSK3B, sequence (P49841 whole entry): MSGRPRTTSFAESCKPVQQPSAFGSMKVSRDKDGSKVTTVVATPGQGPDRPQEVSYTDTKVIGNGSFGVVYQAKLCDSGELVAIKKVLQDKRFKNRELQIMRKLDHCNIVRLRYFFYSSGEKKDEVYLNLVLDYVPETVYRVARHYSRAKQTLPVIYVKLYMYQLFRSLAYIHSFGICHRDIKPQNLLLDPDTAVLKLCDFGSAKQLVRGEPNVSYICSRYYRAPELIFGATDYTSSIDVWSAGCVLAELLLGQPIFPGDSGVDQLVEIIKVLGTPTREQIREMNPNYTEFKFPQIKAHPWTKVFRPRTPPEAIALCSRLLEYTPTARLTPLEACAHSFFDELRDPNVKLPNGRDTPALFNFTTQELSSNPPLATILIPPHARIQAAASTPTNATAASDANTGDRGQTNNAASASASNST

HIPK2 = HIPK2 (Homo sapiens, UniProt Q9H2X6)
JNK1 = biological target: T1, JNK1 (Homo sapiens, UniProt P45983)
T1 construct: gene MAPK8

MKK7 = biological target: T2, MKK7 (Homo sapiens, UniProt O14733)
T2 construct: gene MAP2K7

MKNK1 = MKNK1 (Homo sapiens, UniProt Q9BUB5)
MLK1 = biological target: T3, MLK1 (Homo sapiens, UniProt P80192)
T3 construct: gene MAP3K9

NDR2 = biological target: T4, NDR2 (Homo sapiens, UniProt Q9Y2H1)
T4 construct: gene STK38L

NEK3 = NEK3 (Homo sapiens, UniProt P51956)
NEK9 = NEK9 (Homo sapiens, UniProt Q8TD19)
NEK9, sequence (Q8TD19 whole entry): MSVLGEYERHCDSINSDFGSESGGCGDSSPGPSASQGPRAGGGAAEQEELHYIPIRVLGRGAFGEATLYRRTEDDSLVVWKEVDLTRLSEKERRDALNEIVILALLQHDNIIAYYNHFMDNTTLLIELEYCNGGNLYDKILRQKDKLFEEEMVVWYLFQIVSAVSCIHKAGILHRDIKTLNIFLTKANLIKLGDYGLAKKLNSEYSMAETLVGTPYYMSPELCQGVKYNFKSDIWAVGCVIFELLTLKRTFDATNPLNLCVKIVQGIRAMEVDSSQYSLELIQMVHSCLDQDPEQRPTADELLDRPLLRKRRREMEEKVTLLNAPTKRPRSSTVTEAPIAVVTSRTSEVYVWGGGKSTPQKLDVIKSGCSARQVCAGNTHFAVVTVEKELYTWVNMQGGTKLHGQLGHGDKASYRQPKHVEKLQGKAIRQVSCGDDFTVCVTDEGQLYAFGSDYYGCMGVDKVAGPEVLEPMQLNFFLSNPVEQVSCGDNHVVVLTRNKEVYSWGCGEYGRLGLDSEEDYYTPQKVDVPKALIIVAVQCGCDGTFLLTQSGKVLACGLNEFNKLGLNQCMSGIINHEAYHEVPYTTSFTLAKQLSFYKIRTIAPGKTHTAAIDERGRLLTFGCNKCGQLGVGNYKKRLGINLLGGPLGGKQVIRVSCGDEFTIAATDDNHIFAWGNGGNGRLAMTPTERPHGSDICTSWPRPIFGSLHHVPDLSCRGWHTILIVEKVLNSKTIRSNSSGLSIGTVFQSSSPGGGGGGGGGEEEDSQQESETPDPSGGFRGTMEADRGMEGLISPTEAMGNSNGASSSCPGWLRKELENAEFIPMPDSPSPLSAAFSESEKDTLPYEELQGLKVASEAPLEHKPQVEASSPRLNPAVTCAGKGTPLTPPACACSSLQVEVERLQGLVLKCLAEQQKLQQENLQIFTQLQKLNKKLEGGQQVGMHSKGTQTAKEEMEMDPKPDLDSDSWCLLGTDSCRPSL

OSR1 = biological target: T5, OSR1 (Homo sapiens, UniProt O95747)
T5 construct: gene OXSR1
T5 sequence (O95747 whole entry): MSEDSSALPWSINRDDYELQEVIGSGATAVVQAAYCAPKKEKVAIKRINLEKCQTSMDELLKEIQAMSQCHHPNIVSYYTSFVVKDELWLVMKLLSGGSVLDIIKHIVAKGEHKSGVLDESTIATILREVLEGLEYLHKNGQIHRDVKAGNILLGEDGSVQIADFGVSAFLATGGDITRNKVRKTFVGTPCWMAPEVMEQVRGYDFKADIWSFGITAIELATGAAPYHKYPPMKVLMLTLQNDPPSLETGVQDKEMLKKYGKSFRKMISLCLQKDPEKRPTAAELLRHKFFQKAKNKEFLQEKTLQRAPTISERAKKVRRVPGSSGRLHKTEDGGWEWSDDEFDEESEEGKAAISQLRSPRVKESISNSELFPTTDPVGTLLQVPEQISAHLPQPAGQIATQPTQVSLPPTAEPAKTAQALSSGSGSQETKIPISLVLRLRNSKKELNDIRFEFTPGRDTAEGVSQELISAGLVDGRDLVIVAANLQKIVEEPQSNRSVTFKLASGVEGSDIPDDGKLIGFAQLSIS

PAK3 = PAK3 (Homo sapiens, UniProt O75914)
PIP5K1C = PIP5K1C (Homo sapiens, UniProt O60331)
RIPK2 = RIPK2 (Homo sapiens, UniProt O43353)
RIPK2, sequence (O43353 whole entry): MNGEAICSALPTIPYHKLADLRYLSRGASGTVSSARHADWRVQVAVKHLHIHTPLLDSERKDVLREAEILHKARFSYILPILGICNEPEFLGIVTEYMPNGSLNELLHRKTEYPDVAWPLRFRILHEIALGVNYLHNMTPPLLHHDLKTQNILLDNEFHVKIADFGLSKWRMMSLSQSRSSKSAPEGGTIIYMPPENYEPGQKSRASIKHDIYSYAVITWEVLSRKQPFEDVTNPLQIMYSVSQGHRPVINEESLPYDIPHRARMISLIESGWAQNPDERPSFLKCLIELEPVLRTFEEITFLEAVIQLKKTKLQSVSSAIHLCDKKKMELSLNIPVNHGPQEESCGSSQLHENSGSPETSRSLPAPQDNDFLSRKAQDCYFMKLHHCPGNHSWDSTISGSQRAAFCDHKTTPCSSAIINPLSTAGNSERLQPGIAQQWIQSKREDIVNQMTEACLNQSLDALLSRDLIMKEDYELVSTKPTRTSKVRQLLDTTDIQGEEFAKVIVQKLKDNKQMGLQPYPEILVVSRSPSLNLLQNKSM

ROCK2 = ROCK2 (Homo sapiens, UniProt O75116)
ROCK2, sequence (O75116 whole entry): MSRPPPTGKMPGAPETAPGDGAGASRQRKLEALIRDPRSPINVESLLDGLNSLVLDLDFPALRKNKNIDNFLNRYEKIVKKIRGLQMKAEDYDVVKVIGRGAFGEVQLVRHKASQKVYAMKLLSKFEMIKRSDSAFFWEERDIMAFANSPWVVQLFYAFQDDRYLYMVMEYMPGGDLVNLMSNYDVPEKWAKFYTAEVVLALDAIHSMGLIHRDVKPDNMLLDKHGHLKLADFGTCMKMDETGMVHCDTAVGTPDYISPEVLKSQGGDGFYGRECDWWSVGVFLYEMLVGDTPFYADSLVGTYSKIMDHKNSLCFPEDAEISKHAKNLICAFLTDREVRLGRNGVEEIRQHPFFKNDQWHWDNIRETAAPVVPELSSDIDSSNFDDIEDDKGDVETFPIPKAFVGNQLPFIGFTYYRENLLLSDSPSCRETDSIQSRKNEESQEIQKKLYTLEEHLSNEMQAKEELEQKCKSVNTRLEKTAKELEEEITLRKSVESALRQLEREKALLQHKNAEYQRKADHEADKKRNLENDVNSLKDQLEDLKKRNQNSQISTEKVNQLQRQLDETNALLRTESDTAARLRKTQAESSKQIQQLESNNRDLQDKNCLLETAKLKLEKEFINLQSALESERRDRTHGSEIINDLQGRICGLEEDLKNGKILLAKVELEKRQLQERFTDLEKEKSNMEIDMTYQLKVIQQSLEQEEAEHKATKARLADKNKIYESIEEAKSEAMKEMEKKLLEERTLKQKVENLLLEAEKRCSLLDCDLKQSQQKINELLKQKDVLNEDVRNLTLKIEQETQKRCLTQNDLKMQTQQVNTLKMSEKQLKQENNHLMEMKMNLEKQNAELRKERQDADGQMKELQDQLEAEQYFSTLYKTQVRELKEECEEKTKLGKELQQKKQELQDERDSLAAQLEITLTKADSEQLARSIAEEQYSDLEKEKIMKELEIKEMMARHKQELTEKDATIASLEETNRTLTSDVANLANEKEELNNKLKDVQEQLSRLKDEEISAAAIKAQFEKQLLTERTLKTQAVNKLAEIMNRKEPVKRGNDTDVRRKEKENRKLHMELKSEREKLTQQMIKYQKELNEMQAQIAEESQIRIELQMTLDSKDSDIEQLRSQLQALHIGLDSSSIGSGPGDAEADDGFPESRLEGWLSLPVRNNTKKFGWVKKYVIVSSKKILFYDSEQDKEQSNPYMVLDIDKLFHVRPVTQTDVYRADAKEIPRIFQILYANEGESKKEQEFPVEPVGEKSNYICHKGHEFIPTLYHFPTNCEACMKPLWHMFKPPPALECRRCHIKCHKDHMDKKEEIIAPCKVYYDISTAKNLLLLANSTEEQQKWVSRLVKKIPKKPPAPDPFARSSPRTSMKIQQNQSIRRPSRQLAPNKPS

SgK110 = biological target: T6, SgK110 (Homo sapiens, UniProt P0C264)
T6 construct: gene SBK3

TLK2 = TLK2 (Homo sapiens, UniProt Q86UE8)
TLK2, sequence (Q86UE8 whole entry): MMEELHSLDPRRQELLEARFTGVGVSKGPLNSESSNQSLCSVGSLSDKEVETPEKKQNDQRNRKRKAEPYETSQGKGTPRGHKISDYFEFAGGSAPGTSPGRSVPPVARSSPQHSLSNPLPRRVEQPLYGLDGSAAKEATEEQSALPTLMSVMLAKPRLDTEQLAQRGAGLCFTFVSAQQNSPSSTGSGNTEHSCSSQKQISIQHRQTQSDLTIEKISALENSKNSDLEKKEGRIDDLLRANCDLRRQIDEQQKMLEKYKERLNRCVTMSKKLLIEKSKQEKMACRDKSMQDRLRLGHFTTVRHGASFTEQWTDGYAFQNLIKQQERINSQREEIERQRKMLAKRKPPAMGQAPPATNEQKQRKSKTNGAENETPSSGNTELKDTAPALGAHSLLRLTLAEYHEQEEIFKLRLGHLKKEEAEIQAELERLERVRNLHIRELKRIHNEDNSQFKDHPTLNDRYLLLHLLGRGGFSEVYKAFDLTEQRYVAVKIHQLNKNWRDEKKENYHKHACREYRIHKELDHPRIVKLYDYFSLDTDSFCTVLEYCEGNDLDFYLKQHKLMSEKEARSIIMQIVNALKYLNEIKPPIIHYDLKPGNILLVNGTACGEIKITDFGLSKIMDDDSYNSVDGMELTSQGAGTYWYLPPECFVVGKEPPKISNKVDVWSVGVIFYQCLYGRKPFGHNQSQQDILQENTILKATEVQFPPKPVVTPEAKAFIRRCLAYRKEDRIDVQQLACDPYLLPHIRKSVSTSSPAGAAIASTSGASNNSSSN

For `Cc1ccc(NC(=O)c2cccc(C(F)(F)F)c2)cc1Nc1cc(-c2cccnc2)nc2[nH]ccc12` [HZX-02-059], the remaining binding at 1 µM (BRSK1) was 97%, the remaining binding at 1 µM (CDK2) was 96% and the remaining binding at 1 µM (CDK8) was 91%. For the same compound, the remaining binding at 1 µM (CDK9) was 100%, the remaining binding at 1 µM (CDKL5) was 90% and the remaining binding at 1 µM (CSK) was 91%. For the same compound, the remaining binding at 1 µM (FLT3(ITD,F691L)) was 100%, the remaining binding at 1 µM (FLT3(R834Q)) was 100% and the remaining binding at 1 µM (GSK3B) was 83%. It also gave a remaining binding at 1 µM (HIPK2) of 100%, a remaining binding at 1 µM (JNK1) of 84% and a remaining binding at 1 µM (MKK7) of 95%. The remaining binding at 1 µM (MKNK1) was 100%, the remaining binding at 1 µM (MLK1) was 100% and the remaining binding at 1 µM (NDR2) was 94%. For the same compound, the remaining binding at 1 µM (NEK3) was 54%, the remaining binding at 1 µM (NEK9) was 71% and the remaining binding at 1 µM (OSR1) was 97%. It also gave a remaining binding at 1 µM (PAK3) of 27%, a remaining binding at 1 µM (PIP5K1C) of 73% and a remaining binding at 1 µM (RIPK2) of 100%. It also gave a remaining binding at 1 µM (ROCK2) of 100%, a remaining binding at 1 µM (SgK110) of 100% and a remaining binding at 1 µM (TLK2) of 89%.
